# Measurements taken from PMC3688708 (PLoS ONE, 2013).
# pKd: −log10 of the molar value. Counter-ions that a name gives are not always drawn. Like-named read-outs stand apart in the source and are kept apart here.
# Experiments:
# PA63-channel [1] = target: T1, PA63-channel (Bacillus anthracis, UniProt P13423); test: biochemical; format: binding
# J774A.1 cells [2] = settings: 100 µM
# J774A.1 macrophages = format: cell-based; settings: for amount of lysed cells (LF-induced cell lysis after acidic pulse): pH 5
# PA63-channel [3] = target: T1, PA63-channel; test: biochemical; format: binding; remark: listed apart in the source
# J774A.1 cells [4] = format: cell-based
# PA63-channel [5] = target: T1, PA63-channel; settings: cited from earlier work
# PA63-channel [6] = target: T1, PA63-channel; settings: cited from earlier work; remark: listed apart in the source
# [7] = read-out: Half saturation constant KS, pH 6
# T1 sequence (P13423 197-764 limits assumed): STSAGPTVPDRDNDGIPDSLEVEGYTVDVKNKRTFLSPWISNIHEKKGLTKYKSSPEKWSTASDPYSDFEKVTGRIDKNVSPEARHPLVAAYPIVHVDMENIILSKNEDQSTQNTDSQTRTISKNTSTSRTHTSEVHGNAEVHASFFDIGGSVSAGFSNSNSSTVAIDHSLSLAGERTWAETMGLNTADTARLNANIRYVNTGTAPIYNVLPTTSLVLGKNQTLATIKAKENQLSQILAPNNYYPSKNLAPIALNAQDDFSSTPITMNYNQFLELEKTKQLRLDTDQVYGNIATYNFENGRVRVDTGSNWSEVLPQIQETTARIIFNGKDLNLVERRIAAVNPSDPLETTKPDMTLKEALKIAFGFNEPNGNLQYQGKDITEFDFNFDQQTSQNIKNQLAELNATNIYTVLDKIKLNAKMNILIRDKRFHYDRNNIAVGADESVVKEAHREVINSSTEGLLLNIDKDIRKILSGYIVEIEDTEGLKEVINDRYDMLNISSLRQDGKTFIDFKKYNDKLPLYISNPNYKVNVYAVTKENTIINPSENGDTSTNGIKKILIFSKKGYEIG
compound,measurement,setting,value
"1-(4-chlorophenyl)-2-(4-bromophenyl)imidazo[1,2-a]pyridinium tetrafluoroborate [HA1568]",off-rate k-1,PA63-channel [1],260 s⁻¹
same,on-rate constant k1,PA63-channel [1],1.3e+08 M⁻¹ s⁻¹
same,K (stability constant from ratio k1/k-1),PA63-channel [1]; pH 6,"511,000 L/mol"
same,k1 (on-rate constant),PA63-channel [1]; pH 6,1.3×10^8 L/(molxs)
same,k-1 (off-rate constant),PA63-channel [1]; pH 6,260 s⁻¹
same,pKd,"PA63-channel [1]; pH 6, read-out: KS",5.70
same,cell viability (MTS assay),J774A.1 cells [2]; 24 h,no effect on cell viability
same,viability of J774A.1 cells by MTS-assay after acidic shift with PA63/LF,J774A.1 macrophages,protective effect
same,amount of lysed cells (LF-induced cell lysis after acidic pulse),J774A.1 macrophages,significantly reduced
same,K*,PA63-channel [3],"478,000 L/mol"
same,Stability constant K,PA63-channel [3]; pH 6,"478,000 L/mol"
same,pKd,"PA63-channel [3]; pH 6, read-out: Half saturation constant KS",5.57
same,lethal toxin-treated cells that survived in the presence of the substance,J774A.1 cells [4],about 80%
same,protection from lysis by PA63/LF in the medium,J774A.1 cells [4],protected
"O=[N+]([O-])c1cccc(-n2c(-c3ccc(Br)cc3)c[n+]3ccccc23)c1 (as salt: bromide) [HA1495, 1-(3-nitrophenyl)-2-(4-bromophenyl)imidazo[1,2-a]pyridinium bromide]",melting point,,176 to 177 °C
CCN(CC)CCCC(C)Nc1ccnc2cc(Cl)ccc12 (stereo not shown) [Chloroquine],K (stability constant from ratio k1/k-1),PA63-channel [5],"1,030,000 L/mol"
same,k1 (on-rate constant),PA63-channel [5],3.6×10^8 L/(molxs)
same,k-1 (off-rate constant),PA63-channel [5],350 s⁻¹
same,pKd,PA63-channel [5]; read-out: KS,6.01
same,K*,PA63-channel [6],"676,000 L/mol"
same,Stability constant K,PA63-channel [6]; pH 6,"676,000 L/mol"
same,pKd,PA63-channel [6]; [7],5.82
same,pKd,PA63-channel [6]; read-out: Half saturation constant Ks,5.84
"O=[N+]([O-])c1ccc(-c2c[n+]3ccccc3n2-c2ccc(O)cc2)cc1 [HA1383, 1-(4-hydroxyphenyl)-2-(4-nitrophenyl)imidazo[1,2-a]pyridinium tetrafluoroborate]",pKd,PA63-channel [1],5.74
same,off-rate k-1,PA63-channel [1],352 s⁻¹
same,K (stability constant from ratio k1/k-1),PA63-channel [1]; pH 6,"560,000 L/mol"
same,k1 (on-rate constant),PA63-channel [1]; pH 6,2.1×10^8 L/(molxs)
same,k-1 (off-rate constant),PA63-channel [1]; pH 6,370 s⁻¹
same,melting point,,171 to 173 °C
same,cell viability (MTS assay),J774A.1 cells [2]; 7 h,no effect on cell viability
same,cell viability (MTS assay),J774A.1 cells [2]; 24 h,slightly decreased
same,amount of lysed cells (LF-induced cell lysis after acidic pulse),J774A.1 macrophages,significantly reduced
same,K (Lineweaver-Burke plot),PA63-channel [3],"740,000 1/M"
same,K*,PA63-channel [3],"749,000 L/mol"
same,pKd,PA63-channel [3]; Half saturation constant KS,5.89
same,pKd,PA63-channel [3]; Half saturation constant Ks,5.87
same,protection from lysis by PA63/LF in the medium,J774A.1 cells [4],moderate inhibitory effect
"O=[N+]([O-])c1cccc(-n2c(-c3ccc(Br)cc3)c[n+]3ccccc23)c1 [HA1495, 1-(3-nitrophenyl)-2-(4-bromophenyl)imidazo[1,2-a]pyridinium bromide]",cell viability (MTS assay),J774A.1 cells [2]; 24 h,no effect on cell viability
same,amount of lysed cells (LF-induced cell lysis after acidic pulse),J774A.1 macrophages,significantly reduced
same,pKd,PA63-channel [3]; Half saturation constant KS,5.44
same,Stability constant K,PA63-channel [3]; pH 6,"274,000 L/mol"
same,protection from lysis by PA63/LF in the medium,J774A.1 cells [4],moderate inhibitory effect
O=c1[nH]c2cccc[n+]2c2ccccc12 [HA 47],Stability constant K,PA63-channel [3]; pH 6,500 L/mol
same,pKd,PA63-channel [3]; [7],2.70
Brc1ccc(-c2csc3cccc[n+]23)cc1 [HA 112],pKd,PA63-channel [3]; Half saturation constant KS,4.24
same,Stability constant K,PA63-channel [3]; pH 6,"18,500 L/mol"
Clc1ccc(OCn2cc[n+]3ccccc23)c(Cl)c1 [HA 486],pKd,PA63-channel [1],4.49
same,off-rate k-1,PA63-channel [1],"3,500 1/s"
same,on-rate constant k1,PA63-channel [1],1.2e+08 M⁻¹ s⁻¹
same,K (stability constant from ratio k1/k-1),PA63-channel [1]; pH 6,"34,000 L/mol"
same,k1 (on-rate constant),PA63-channel [1]; pH 6,1.2×10^8 L/(molxs)
same,k-1 (off-rate constant),PA63-channel [1]; pH 6,"3,500 1/s"
same,K*,PA63-channel [3],"38,000 L/mol"
same,pKd,PA63-channel [3]; Half saturation constant KS,4.57
same,Stability constant K,PA63-channel [3]; pH 6,"38,000 L/mol"
Clc1cc(Cl)c(-n2nnc3cccc[n+]32)c(Cl)c1 [HA 728],pKd,PA63-channel [3]; Half saturation constant KS,4.07
same,Stability constant K,PA63-channel [3]; pH 6,"11,800 L/mol"
Clc1ccc(OCn2cn[n+]3ccccc23)c(Cl)c1 [HA 766],pKd,PA63-channel [3]; Half saturation constant KS,4.44
same,Stability constant K,PA63-channel [3]; pH 6,"29,400 L/mol"
Cn1c(COc2ccc(Cl)cc2)n[n+]2ccccc12 [HA 1196],pKd,PA63-channel [3]; Half saturation constant KS,3.59
same,Stability constant K,PA63-channel [3]; pH 6,"3,800 L/mol"
COc1ccc([N+](=O)[O-])cc1-n1nnc2cccc[n+]21 [HA 1212],Stability constant K,PA63-channel [3]; pH 6,"7,000 L/mol"
same,pKd,PA63-channel [3]; [7],3.82
Clc1ccc(-n2nnc3ccc4ccccc4[n+]32)c(Cl)c1 [HA 1221],pKd,PA63-channel [3]; Half saturation constant KS,3.77
same,Stability constant K,PA63-channel [3]; pH 6,"6,000 L/mol"
O=C(C[n+]1ccccc1Cl)c1ccc([N+](=O)[O-])cc1 [HA 1371],pKd,PA63-channel [3]; Half saturation constant KS,3.51
same,Stability constant K,PA63-channel [3]; pH 6,"3,200 L/mol"
CCOC(=O)c1ccc(-n2c(-c3ccc(Br)cc3)c[n+]3cccc(O)c23)cc1 [HA 1504],pKd,PA63-channel [3]; Half saturation constant KS,4.92
same,Stability constant K,PA63-channel [3]; pH 6,"82,900 L/mol"
O=c1c2ccccc2[n+]2ccccc2n1Cc1cccc2ccccc12 [HA 1882],pKd,PA63-channel [3]; Half saturation constant KS,3.89
same,Stability constant K,PA63-channel [3]; pH 6,"7,900 L/mol"
COc1ccc(-n2c(=S)n(-c3ccc([N+](=O)[O-])cc3)c3cccc[n+]32)cc1 [HA 1885],pKd,PA63-channel [3]; Half saturation constant KS,3.96
same,Stability constant K,PA63-channel [3]; pH 6,"10,800 L/mol"
